Results taken from PubChem BioAssay (NCI).
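Grown in 96-well plates, cells were treated for 48 hours with each compound at five concentrations. Insufficient inhibition: endpoint recorded as highest concentration tested. At the TGI there is no net growth.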

Key:
Assay in all cases: NCI-60 cell line screen, 48 h
HOP-62 NSCLC = tested on: HOP-62 NSCLC
HOP-92 NSCLC = tested on: HOP-92 NSCLC
MDA-MB-435 = tested on: MDA-MB-435
MALME-3M melanoma = tested on: MALME-3M melanoma
HCT-15 colon = tested on: HCT-15 colon
MDA-N = tested on: MDA-N
CCRF-CEM leukemia = tested on: CCRF-CEM leukemia
A549 NSCLC = tested on: A549 NSCLC
SN12C renal = tested on: SN12C renal
EKVX NSCLC = tested on: EKVX NSCLC

Structure (SMILES) | TGI (HOP-62 NSCLC) | TGI (HOP-92 NSCLC) | TGI (MDA-MB-435) | TGI (MALME-3M melanoma) | TGI (HCT-15 colon) | TGI (MDA-N) | TGI (CCRF-CEM leukemia) | TGI (A549 NSCLC) | TGI (SN12C renal) | TGI (EKVX NSCLC)
Cc1ccc(-n2cc(-c3ccc(Cl)cc3)c3c(NNC(=S)NCc4ccccc4)ncnc32)cc1 | 85.4 µM | 66 µM | 76.1 µM | > 100 µM | 68.2 µM | > 100 µM | > 100 µM | 41.1 µM | 24.3 µM | 73.5 µM
CN(C)CCCNc1ccc2nnn3c4ccc([N+](=O)[O-])cc4c(=O)c1c23 | 8.51 µM | 7.45 µM | 12.3 µM | 14.5 µM | 7.77 µM | 15.9 µM | 12.1 µM | 3.06 µM | 9.5 µM | 12.9 µM
CCO/C=N/C1=C(C#N)C(c2ccc(OC)c(OC)c2)c2c(-c3ccccc3)nn(-c3ccccc3)c2O1 (stereo not given) | > 100 µM | 30 µM | 33.1 µM | 51.2 µM | 18 µM | 35.5 µM | 6.26 µM | 40.5 µM | 38.9 µM | 33.1 µM
Clc1ccc(CCN2CCN(CCCc3ccccc3)CC2)cc1Cl | 35.8 µM | 23.6 µM | 31.1 µM | 33.8 µM | 27.8 µM | 31.4 µM | > 100 µM | 29.9 µM | 29.8 µM | 32.9 µM
CC(C)Oc1c(O)c2c3c(oc(=O)n3C=CC2c2ccccc2F)c1OC(C)C (stereo not given) | > 100 µM | > 100 µM | 70 µM | > 100 µM | > 100 µM | > 100 µM | 97.6 µM | > 100 µM | > 100 µM | > 100 µM
CC(=O)CC(=O)Nn1c(-c2cccs2)nc2ccc(I)cc2c1=O | > 100 µM | > 100 µM | > 100 µM | > 93.2 µM | > 100 µM | > 100 µM | > 100 µM | > 100 µM | > 100 µM | > 66.1 µM
O=C1c2c(ccc3c2CCCC3)CC12Cc1ccccc1C2 | > 100 µM | 51.7 µM | > 100 µM | 34.9 µM | > 49.8 µM | > 100 µM | 27 µM | > 92.6 µM | > 100 µM | > 95.9 µM
COC(=O)C1(C(=O)OC)CC2=C(S(=O)(=O)c3ccccc3)C[C@@H](C#N)[C@H]2C1 | > 100 µM | > 100 µM | > 100 µM | > 100 µM | > 100 µM | > 100 µM | > 100 µM | > 100 µM | > 100 µM | > 100 µM
C=C(Cl)C(Cl)(CBr)CCC(Cl)C(C)C (stereo not given) | 2.94 µM | 3.52 µM | 20.6 µM | 28.4 µM | 22.1 µM | 16.3 µM | > 100 µM | 27.1 µM | 33.2 µM | 27.9 µM
Fc1ccccc1N=c1oc2ccc(Br)cc2cc1-c1nc2ccccc2[nH]1 | 28.1 µM | 83.8 µM | > 64.6 µM | 14.9 µM | > 100 µM | > 42.6 µM | > 100 µM | 23.1 µM | > 41.1 µM | > 41.5 µM
COc1ccc(N=Nc2ccc3oc(=O)c(C(=O)Nc4ccc(OC)cc4)cc3c2)cc1 | 30.3 µM | 50.1 µM | 54.8 µM | 52.7 µM | 45.2 µM | > 100 µM | > 100 µM | > 100 µM | 45.2 µM | 97.7 µM
COc1cc(OC)cc(N(C)Cc2cnc3nc(N)nc(N)c3c2C)c1 | > 36.1 µM | > 100 µM | > 100 µM | > 100 µM | > 100 µM | > 100 µM | > 100 µM | > 100 µM | > 100 µM | > 100 µM
C[C@H]1C(=O)C2=C[C@H]1CCC(=O)[C@]1(C)CCCC(C)(C)[C@H]1C[C@H]2O | > 100 µM | 54.3 µM | > 100 µM | 43.5 µM | 34.3 µM | > 100 µM | 75.4 µM | 43.6 µM | 94.2 µM | 31.9 µM
O=c1n(CCO)nc2n1CCCN2 | > 100 µM | > 100 µM | > 100 µM | > 100 µM | > 100 µM | > 100 µM | > 100 µM | > 100 µM | > 100 µM | > 100 µM
O=C(C(=O)n1ccc2ccccc21)c1c[nH]c2ccccc12 | > 10 µM | > 10 µM | > 10 µM | > 10 µM | > 10 µM | > 10 µM | > 10 µM | > 10 µM | > 10 µM | > 10 µM
CCOc1c(OC)cc(CNNc2nccs2)cc1OC | > 100 µM | > 100 µM | > 100 µM | > 100 µM | > 100 µM | > 100 µM | > 100 µM | > 100 µM | > 100 µM | > 100 µM
CN1CCN(c2nc3c(c(=O)n(C)c(=O)n3C)n2C)CC1 | > 100 µM | > 100 µM | > 100 µM | > 100 µM | > 100 µM | > 100 µM | > 100 µM | > 100 µM | > 100 µM | > 100 µM
